CS(=O)(=O)c1ccc([C@@H](O)[C@@H](CF)NC(=O)C(Cl)Cl)cc1
solubility (mole fraction)
Conditions | 283.15 K | 288.15 K | 293.15 K | 298.15 K | 303.15 K | 308.15 K | 313.15 K | 318.15 K | 323.15 K
in 2-ethylhexanol | 0.000183 | 0.000254 | 0.000319 | 0.000383 | 0.000521 | 0.000635 | 0.000813 | 0.00103 | 0.00129
in ethanol | 0.00151 | 0.00196 | 0.00244 | 0.00309 | 0.00369 | 0.00461 | 0.00562 | 0.00702 | 0.00842
in isobutanol | 0.000293 | 0.000385 | 0.000497 | 0.000613 | 0.000819 | 0.00104 | 0.00137 | 0.0017 | 0.00224
in isopentanol | 0.000487 | 0.000586 | 0.000765 | 0.000959 | 0.00123 | 0.00149 | 0.00191 | 0.00238 | 0.00285
in isopropanol | 0.00061 | 0.00076 | 0.00101 | 0.00133 | 0.00169 | 0.00218 | 0.00278 | 0.00363 | 0.00457
in n-butanol | 0.000512 | 0.000648 | 0.000821 | 0.00112 | 0.0014 | 0.00183 | 0.00236 | 0.00302 | 0.00385
in n-propanol | 0.000974 | 0.00125 | 0.00165 | 0.00215 | 0.00269 | 0.00359 | 0.00437 | 0.00563 | 0.00712
in propionic acid | 0.00027 | 0.000347 | 0.000447 | 0.000562 | 0.00073 | 0.000961 | 0.00123 | 0.0016 | 0.00211

— BigSolDB 2.1
